Patent US20240158446A1, “CYCLIC COMPOUND HAVING SELECTIVE INHIBITORY ACTION ON KRAS OVER HRAS AND NRAS” (CHUGAI SEIYAKU KABUSHIKI KAISHA, priority 2021, published 2024)
Like-named read-outs stand apart in the source and are kept apart here.

What was measured:
[1] = target: GDP-bound HRAS wild-type protein (Homo sapiens, UniProt P01112); experiment: Binding to HRAS by surface plasmon resonance (SPR), Single Cycle Kinetics; settings: for HRAS/KRAS (ratio of KD value for HRAS to KD value for KRAS) / ratio of the KD value with respect to GDP-bound HRAS wild-type protein to the KD value with respect to KRAS: SPR; for HRAS/KRAS (ratio of KD value for HRAS to KD value for KRAS): GDP-bound HRAS wild-type protein vs GDP-bound KRAS wild-type protein
[2] = tested on: human lung cancer strain NCI-H441;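 also: cell proliferation inhibition after four days measured by CellTiter-Glo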
[3] = target: GDP-bound KRAS wild-type protein (Homo sapiens, UniProt P01116); experiment: Binding to KRAS by surface plasmon resonance (SPR), Single Cycle Kinetics
[4] = target: GDP-bound NRAS wild-type protein (Homo sapiens, UniProt P01111); experiment: Binding to NRAS by surface plasmon resonance (SPR), Single Cycle Kinetics; settings: for NRAS/KRAS (ratio of KD value for NRAS to KD value for KRAS) / ratio of the KD value with respect to GDP-bound NRAS wild-type protein to the KD value with respect to KRAS: SPR; for NRAS/KRAS (ratio of KD value for NRAS to KD value for KRAS): GDP-bound NRAS wild-type protein vs GDP-bound KRAS wild-type protein
[5] = SPR, Single Cycle Kinetics, GDP-bound KRAS wild-type protein, read-out: KRAS KD
[6] = SPR, Single Cycle Kinetics, 1:1 binding model, GDP-bound KRAS wild-type protein, read-out: KRAS KD
[7] = read-out: NCI-H441 cell proliferation inhibitory activity, 50% proliferation inhibitory concentration (IC50 value), NCI-H441, four days, CellTiter-Glo
[8] = SPR, Single Cycle Kinetics, 1:1 binding model, read-out: KD value with respect to GDP-bound KRAS wild-type protein

Sequence of GDP-bound KRAS wild-type protein (P01116 whole entry): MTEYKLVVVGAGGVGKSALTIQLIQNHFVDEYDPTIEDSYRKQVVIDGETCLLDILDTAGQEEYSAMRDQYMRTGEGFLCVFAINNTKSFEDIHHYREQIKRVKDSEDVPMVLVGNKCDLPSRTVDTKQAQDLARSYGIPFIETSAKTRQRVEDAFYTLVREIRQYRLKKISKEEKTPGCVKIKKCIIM
Sequence of GDP-bound HRAS wild-type protein (P01112 whole entry): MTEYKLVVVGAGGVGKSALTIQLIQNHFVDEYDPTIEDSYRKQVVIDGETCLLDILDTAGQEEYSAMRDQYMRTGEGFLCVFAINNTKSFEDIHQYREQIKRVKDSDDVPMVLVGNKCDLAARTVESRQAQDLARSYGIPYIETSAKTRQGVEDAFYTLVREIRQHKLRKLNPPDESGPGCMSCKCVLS
Sequence of GDP-bound NRAS wild-type protein (P01111 whole entry): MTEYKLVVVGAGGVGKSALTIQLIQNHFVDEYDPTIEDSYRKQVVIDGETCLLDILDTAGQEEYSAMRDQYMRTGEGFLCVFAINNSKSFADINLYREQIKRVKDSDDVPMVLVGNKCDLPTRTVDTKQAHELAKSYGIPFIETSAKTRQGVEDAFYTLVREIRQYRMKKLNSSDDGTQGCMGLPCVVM

| IC50 [2] | Kd [3, 5] | Structure (SMILES) | HRAS/KRAS (ratio of KD value for HRAS to KD value for KRAS) [1] | NRAS/KRAS (ratio of KD value for NRAS to KD value for KRAS) [4] | further results |
| --- | --- | --- | --- | --- | --- |
| 48.3 nM | 0.17 nM | CCO[C@@H]1C[C@H]2C(=O)NC3(CCC3)C(=O)N(C)[C@@H](C3CCCC3)C(=O)N(C)[C@H](C(=O)N(C)C)CC(=O)N(C)[C@@H](Cc3cccc(C#N)c3)C(=O)N[C@@H]([C@@H](C)CC)C(=O)N(C)CC(=O)N(C)[C@H]3CCCCCN(C3=O)[C@@H](Cc3ccc(C(F)(F)F)cc3)C(=O)N(C)CC(=O)N[C@@H](CCc3cc(F)c(C(F)(F)F)c(F)c3)C(=O)N2C1 [PP1172] | B (a compound having 3 or more and less than 10 is denoted as B) | B (a compound having 3 or more and less than 10 is denoted as B) |  |
| 3.4 nM |  | CCCC[C@H]1C(=O)N[C@@H]([C@@H](C)CC)C(=O)N(C)CC(=O)N(C)[C@H]2C/C=C\CCN(C2=O)[C@@H](Cc2ccc(C(F)(F)F)cc2)C(=O)N(C)CC(=O)N[C@@H](CCc2cc(F)c(C(F)(F)F)c(F)c2)C(=O)N2C[C@H](OCC)C[C@H]2C(=O)NC2(CCC2)C(=O)N(C)[C@@H](C2CCCC2)C(=O)N(C)[C@H](C(=O)N(C)CC)CC(=O)N1C [PP1558] |  |  | HRAS/KRAS (ratio of KD value for HRAS to KD value for KRAS) ([1]; KD ratio class): B (a compound having 3 or more and less than 10 is denoted as B); Kd [3, 6]: 0.11 nM; NRAS/KRAS (ratio of KD value for NRAS to KD value for KRAS) ([4]; KD ratio class): A (a compound having 10 or more and less than 20 is denoted as A) |
| 29.2 nM | 0.55 nM | CCOC[C@H]1C(=O)N[C@@H]([C@@H](C)CC)C(=O)N(C)CC(=O)N(C)[C@H]2C/C=C\CCN(C2=O)[C@@H](CC2CCC(F)(F)CC2)C(=O)N(C)CC(=O)N[C@@H](CCc2cc(F)c(C(F)(F)F)c(F)c2)C(=O)N2C[C@H](OCC)C[C@H]2C(=O)NC2(CC(C)(C)C2)C(=O)N(C)[C@@H](C(CC)CC)C(=O)N(C)[C@H](C(=O)N(C)C)CC(=O)N1C [PP2450] | A (a compound having 10 or more and less than 20 is denoted as A) | A (a compound having 10 or more and less than 20 is denoted as A) |  |
| 35.7 nM |  | CCC[C@H]1C(=O)N[C@@H]([C@@H](C)CC)C(=O)N(C)CC(=O)N(C)[C@H]2C/C=C\CCN(C2=O)[C@@H](Cc2ccc(C)cc2)C(=O)N(C)CC(=O)N[C@@H](CCc2ccc(Cl)c(Cl)c2)C(=O)N2C[C@H](OCC)C[C@H]2C(=O)NC2(CC(C)(C)C2)C(=O)N(C)[C@@H](CC2CCC2)C(=O)N(C)[C@H](C(=O)N(C)C)CC(=O)N1C [PP2755] |  |  | HRAS/KRAS (ratio of KD value with respect to GDP-bound HRAS wild-type protein to KD value with respect to KRAS) ([1]; SPR KD ratio HRAS/KRAS, class symbols): A (a compound having 10 or more and less than 20 is denoted as A); Kd ([3]; SPR Single Cycle Kinetics, GDP-bound KRAS wild-type protein, 1:1 binding model, read-out: KRAS KD): 0.56 nM; NRAS/KRAS (ratio of KD value with respect to GDP-bound NRAS wild-type protein to KD value with respect to KRAS) ([4]; SPR KD ratio NRAS/KRAS, class symbols): A (a compound having 10 or more and less than 20 is denoted as A) |
|  | 0.27 nM | CCC[C@H]1C(=O)N[C@@H]([C@@H](C)CC)C(=O)N2CCC[C@H]2C(=O)N(C)[C@H]2C/C=C\CCN(C2=O)[C@@H](Cc2ccc(C(F)(F)F)cc2)C(=O)N(C)CC(=O)N[C@@H](CCc2ccc(C(F)(F)F)c(OC)c2)C(=O)N2C[C@H](OCC)C[C@H]2C(=O)N(C)C2(CCC2)C(=O)N(C)[C@@H](C2CCCC2)C(=O)N(C)[C@H](C(=O)N2CCCC2)CC(=O)N1C [PP3101] | A (a compound having 10 or more and less than 20 is denoted as A) | A (a compound having 10 or more and less than 20 is denoted as A) | ratio of the KD value with respect to GDP-bound HRAS wild-type protein to the KD value with respect to KRAS [1]: A (a compound having 10 or more and less than 20 is denoted as A); IC50 [2, 7]: 4.9 nM; Kd [3, 8]: 0.27 nM; ratio of the KD value with respect to GDP-bound NRAS wild-type protein to the KD value with respect to KRAS [4]: A (a compound having 10 or more and less than 20 is denoted as A) |
| 3.7 nM |  | CCO[C@@H]1C[C@H]2C(=O)NC3(CCCC3)C(=O)N(C)[C@@H](C3CCCC3)C(=O)N(C)[C@H](C(=O)N(C)C)CC(=O)N(C)[C@@H](CC3CC3)C(=O)N[C@@H]([C@@H](C)CC)C(=O)N(C)CC(=O)N(C)[C@H]3C[C@@H](C)[C@@H](C)CN(C3=O)[C@@H](Cc3ccc(C(F)(F)F)cc3)C(=O)N(C)CC(=O)N[C@@H](CCc3ccc(C(F)(F)F)c(Cl)c3)C(=O)N2C1 [PP1362] |  |  | HRAS/KRAS (ratio of KD value for HRAS to KD value for KRAS) ([1]; KD ratio class): B (a compound having 3 or more and less than 10 is denoted as B); Kd [3, 6]: 0.037 nM; NRAS/KRAS (ratio of KD value for NRAS to KD value for KRAS) ([4]; KD ratio class): A (a compound having 10 or more and less than 20 is denoted as A) |
|  | 0.18 nM | CCC[C@H]1C(=O)N[C@@H]([C@@H](C)CC)C(=O)N2CCC[C@H]2C(=O)N(C)[C@H]2C/C=C\CCN(C2=O)[C@@H](Cc2ccc(C)cc2)C(=O)N(C)CC(=O)N[C@@H](CCc2ccc(C(F)(F)F)c(OC)c2)C(=O)N2C[C@H](OCC)C[C@H]2C(=O)N(C)C2(CCC2)C(=O)N(C)[C@@H](C2CCCC2)C(=O)N(C)[C@H](C(=O)N2CCCC2)CC(=O)N1C [PP3102, (1S,4S,10S,13S,17S,20S,26S,28R,32S,38S,42Z)-20-cyclopentyl-28-ethoxy-32-[2-[3-methoxy-4-(trifluoromethyl)phenyl]ethyl]-2,14,18,21,24,36-hexamethyl-10-[(1S)-1-methylpropyl]-13-propyl-38-(p-tolylmethyl)-17-(pyrrolidine-1-carbonyl)spiro[2,8,11,14,18,21,24,30,33,36,39-undecazatetracyclo[37.5.1.0^4,8.0^26,30]pentatetracont-42-ene-23,1′-cyclobutane]-3,9,12,15,19,22,25,31,34,37,45-undecone] | A (a compound having 10 or more and less than 20 is denoted as A) | A (a compound having 10 or more and less than 20 is denoted as A) | ratio of the KD value with respect to GDP-bound HRAS wild-type protein to the KD value with respect to KRAS [1]: A (a compound having 10 or more and less than 20 is denoted as A); IC50 [2, 7]: 6.7 nM; Kd [3, 8]: 0.18 nM; ratio of the KD value with respect to GDP-bound NRAS wild-type protein to the KD value with respect to KRAS [4]: A (a compound having 10 or more and less than 20 is denoted as A) |
| 109 nM | 2 nM | C#CCN1CC(=O)N(C)[C@H]2C/C=C\CCN(C2=O)[C@@H](Cc2ccc(C)cc2)C(=O)N(C)CC(=O)N[C@@H](CCc2cc(F)c(C(F)(F)F)c(F)c2)C(=O)N2C[C@H](OCC)C[C@H]2C(=O)NC2(CC(C)(C)C2)C(=O)N(C)[C@@H](C2CCCC2)C(=O)N(C)[C@H](C(=O)N(C)C)CC(=O)N(C)[C@@H](CCC)C(=O)N[C@@H](CC(C)C)C1=O [PP2512] | A (a compound having 10 or more and less than 20 is denoted as A) | A (a compound having 10 or more and less than 20 is denoted as A) |  |
| 33.2 nM | 1.4 nM | CCCOC[C@H]1C(=O)N[C@@H]([C@@H](C)CC)C(=O)N2CCC[C@H]2C(=O)N(C)[C@H]2C/C=C\CCN(C2=O)[C@@H](Cc2ccc(C)cc2)C(=O)N(C)CC(=O)N[C@@H](CCc2cc(F)c(C(F)(F)F)c(F)c2)C(=O)N2C[C@H](C)C[C@H]2C(=O)NC2(CC(C)(C)C2)C(=O)N(C)[C@@H](C2CCCC2)C(=O)N(C)[C@H](C(=O)N(C)CC)CC(=O)N1C [PP2430] | A (a compound having 10 or more and less than 20 is denoted as A) | AA (a compound having 20 or more is denoted as AA) |  |
| 87.3 nM |  | CCO[C@@H]1C[C@H]2C(=O)NC3(CCCC3)C(=O)N(C)[C@@H](C(CC)CC)C(=O)N(C)[C@H](C(=O)N3CCCC3)CC(=O)N(C)[C@@H](COC)C(=O)N[C@@H]([C@@H](C)CC)C(=O)N(C)CC(=O)N(C)[C@H]3C/C=C\CCN(C3=O)[C@@H](CC3CCCCC3)C(=O)N(C)CC(=O)N[C@@H](CCc3cc(F)c(C(F)(F)F)c(F)c3)C(=O)N2C1 [PP1439] |  |  | HRAS/KRAS (ratio of KD value for HRAS to KD value for KRAS) ([1]; KD ratio class): A (a compound having 10 or more and less than 20 is denoted as A); Kd [3, 6]: 1.2 nM; NRAS/KRAS (ratio of KD value for NRAS to KD value for KRAS) ([4]; KD ratio class): AA (a compound having 20 or more is denoted as AA) |
| 30.5 nM | 0.84 nM | CCO[C@@H]1C[C@H]2C(=O)NC3(CC(C)(C)C3)C(=O)N(C)[C@@H](C(CC)CC)C(=O)N(C)[C@H](C(=O)N(C)C)CC(=O)N(C)[C@@H](CC3CC3)C(=O)N[C@@H]([C@@H](C)CC)C(=O)N(C)CC(=O)N(C)[C@H]3C/C=C\CCN(C3=O)[C@@H](CC3CCC(F)(F)CC3)C(=O)N(C)CC(=O)N[C@@H](CCc3ccc(C(F)(F)F)c(OC)c3)C(=O)N2C1 [PP2480] | A (a compound having 10 or more and less than 20 is denoted as A) | A (a compound having 10 or more and less than 20 is denoted as A) |  |

| Structure (SMILES) | IC50 [2] | Kd [3, 5] | HRAS/KRAS (ratio of KD value for HRAS to KD value for KRAS) [1] | NRAS/KRAS (ratio of KD value for NRAS to KD value for KRAS) [4] | further results |
| --- | --- | --- | --- | --- | --- |
| CCC[C@H]1C(=O)N[C@@H]([C@@H](C)CC)C(=O)N(C2CC2)CC(=O)N(C)[C@H]2C/C=C\CCN(C2=O)[C@@H](Cc2ccc(C(F)(F)F)cc2)C(=O)N(C)CC(=O)N[C@@H](CCc2cc(F)c(C(F)(F)F)c(F)c2)C(=O)N2C[C@H](OCC)C[C@H]2C(=O)N(C)C2(CCC2)C(=O)N(C)[C@@H](C2CCCC2)C(=O)N(C)[C@H](C(=O)N2CCCCC2)CC(=O)N1C [PP3110] |  | 4.3 nM | A (a compound having 10 or more and less than 20 is denoted as A) | A (a compound having 10 or more and less than 20 is denoted as A) | ratio of the KD value with respect to GDP-bound HRAS wild-type protein to the KD value with respect to KRAS [1]: A (a compound having 10 or more and less than 20 is denoted as A); IC50 [2, 7]: 69.9 nM; Kd [3, 8]: 4.3 nM; ratio of the KD value with respect to GDP-bound NRAS wild-type protein to the KD value with respect to KRAS [4]: A (a compound having 10 or more and less than 20 is denoted as A) |
